From patent US9546201B2, “MUC-1 cytoplasmic domain peptides as inhibitors of cancer” (DANA-FARBER CANCER INSTITUTE, INC., priority 2008, dated 2017)
“Also recorded” adds a separate entry of the source. Where a SMILES comes first, the peptide text is derived from it. Where no end group is shown, it is not given here. [ ]: non-standard residue; d: D form.

Key:
His-MUC1-CD oligomers = target: T1, His-MUC1-CD oligomers (Homo sapiens, UniProt P15941); assay: Oligomer formation of purified His-MUC1-CD (non-reducing SDS-polyacrylamide gel, anti-MUC1-C immunoblot); assay type: biochemical; conditions: 200 μM peptide, 1 h at room temperature
T1 sequence (P15941 1184-1255): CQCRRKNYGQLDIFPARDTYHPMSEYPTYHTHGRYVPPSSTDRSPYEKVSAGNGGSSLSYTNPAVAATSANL
Procedure: FIGS. 1A-D. MUC1/CQC peptide blocks MUC1 oligomerization. (FIG. 1A) Schematic representation of the MUC1-C subunit and the 72-amino acid sequence of MUC1-CD (SEQ ID NO: 1) are shown. The N-terminal 15 amino acids (shaded sequence; SEQ ID NO: 3) MUC1/CQC (SEQ ID NO: 63) and mutated MUC1/AQA (SEQ ID NO: 60) peptides were synthesized with the poly-dArg transduction domain. (FIG. 1B) His-MUC1-CD (1.4 mg/ml) was immobilized on a sensor chip in a BIAcore. MUC1/CQC was injected over the chip at 10 μM. Raw binding data were analyzed by BIAevaluation software version 3.0 and fit to a 1:1 Languir binding model. (FIG. 1C) Purified His-MUC1-CD (1.5 mg/ml) was incubated with PBS, 200 μM MUC1/CQC or 200 μM MUC1/AQA for 1 h at room temperature. The proteins were separated in a non-reducing SDS-polyacrylamide gel and analyzed by immunoblotting with anti-MUC1-C. (FIG. 1D) 293 cells were transiently transfected to express an empty vector or GFP-MUC1-CD and Flag-MUC1-CD. At 48 h after transfection, the cells were treated with 5 μM MUC1/CQC or MUC1/AQA for 3 d. The cells were then harvested for immunoblotting with anti-MUC1-C (left panel). […]
The MUC1 cytoplasmic domain (MUC1-CD) contains a CQC motif that is necessary for the formation of oligomers and nuclear localization (Leng et al., 2007). […] Purified His-tagged MUC1-CD forms oligomers as detected by electrophoresis in polyacrylamide gels (FIG. 1C). […]

ZR-75-1/vector cells = assay: Viable cell number by trypan blue exclusion, ZR-75-1/vector; assay type: cell-based, human; conditions: 5 μM
Procedure: (§1) FIGS. 4A-E. Selectivity of MUC1/CQC for MUC1 expressing breast cancer cells. (FIG. 4A) ZR-75-1 cells were stably infected with an empty lentivirus (vector) or one expressing a MUC1 siRNA. Lysates for the infected cells were immunoblotted with the indicated antibodies. (FIG. 4B) ZR-75-1/vector cells were left untreated (diamonds), and ZR-75-1/vector (squares) and ZR-75-1/MUC1siRNA (triangles) cells were treated with 5 μM MUC1/CQC peptide for the indicated times. Viable cell number was determined by trypan blue exclusion. (FIG. 4C) 293 cells were left untreated (diamonds), and treated with 5 μM MUC1/CQC (squares) or MUC1/AQA (triangles) for the indicated times. Viable cell number was determined by trypan blue exclusion. (FIG. 4D) MCF-10A cells were left untreated (left panel), and treated with 5 μM MUC1/CQC (middle panel) or MUC1/AQA (right panel). At 3 d, cells were analyzed for cell cycle distribution. […] Viable cell number was determined by trypan blue exclusion.
(§2) Human breast cancer ZR-75-1, ZR-75-1/vector, ZR-75-1/MUC1siRNA (Ren et al., 2004) cell lines were grown in RPMI1640 medium supplemented with 10% heat-inactivated fetal bovine serum (HI-FBS), 100 U/ml penicillin, and 100 μg/ml streptomycin (Invitrogen) in a humidified incubator at 37° C. and 5% CO2. […] Viability was determined by trypan blue exclusion. […]

ZR-75-1/MUC1siRNA cells = assay: Viable cell number by trypan blue exclusion, ZR-75-1/MUC1siRNA; assay type: cell-based, human; conditions: 5 μM; MUC1 silenced
Procedure: as §1, §2

| Compound | oligomer formation of His-MUC1-CD (His-MUC1-CD oligomers) | effect on growth (viable cell number) (ZR-75-1/vector cells) | effect on growth (viable cell number) (ZR-75-1/MUC1siRNA cells) |
| --- | --- | --- | --- |
| MUC1/AQA: control peptide in which the CQC motif was altered to AQA, with poly-dArg transduction domain; SEQ ID NO: 60 ([dR][dR][dR][dR][dR][dR][dR][dR][dR]AQARRKNYGQLDIFP) [reference compound] | little if any effect | – | – |
| CC[C@H](C)[C@H](NC(=O)[C@H](CC(=O)O)NC(=O)[C@H](CC(C)C)NC(=O)[C@H](CCC(N)=O)NC(=O)CNC(=O)[C@H](Cc1ccc(O)cc1)NC(=O)[C@H](CC(N)=O)NC(=O)[C@H](CCCCN)NC(=O)[C@H](CCCNC(=N)N)NC(=O)[C@H](CCCNC(=N)N)NC(=O)[C@H](CS)NC(=O)[C@H](CCC(N)=O)NC(=O)[C@H](CS)NC(=O)[C@@H](CCCNC(=N)N)NC(=O)[C@@H](CCCNC(=N)N)NC(=O)[C@@H](CCCNC(=N)N)NC(=O)[C@@H](CCCNC(=N)N)NC(=O)[C@@H](CCCNC(=N)N)NC(=O)[C@@H](CCCNC(=N)N)NC(=O)[C@@H](CCCNC(=N)N)NC(=O)[C@@H](CCCNC(=N)N)NC(=O)[C@H](N)CCCNC(=N)N)C(=O)N[C@@H](Cc1ccccc1)C(=O)N1CCC[C@H]1C(=O)O [MUC1/CQC] (H-[dR][dR][dR][dR][dR][dR][dR][dR][dR]CQCRRKNYGQLDIFP-OH; N-terminus and C-terminus assumed) | substantially decreased oligomer formation | growth arrest and death | substantially less effect; also recorded: abrogated the MUC1/CQC cytotoxic effects |
